In patent publication US20250332173A1, “COMPOUNDS AND METHODS FOR MODULATING NUCLEIC ACID SPLICING” (REMIX THERAPEUTICS INC., priority 2021, published 2025):
Read-outs that look alike come from different tables or passages of the source.

Columns and labels:
Format in all cases: cell-based, human
SMN2 mRNA = test: RT-qPCR splicing assay, SMN2 canonical junction (CJ) mRNA; conditions: Homo sapiens
Method in brief: (§1)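 Canonical exon-exon junction transcript levels measured by one-step RT-qPCR of cell lysates, normalized to a housekeeping gene (GAPDH, GUSB or PPIA). Cells used were A673 or K562, exposed for 24 h to compound in 11-point, 3-fold series from 10 uM, with final DMSO at or below 0.25%.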

HTT = test: HiBiT protein abundance assay, HTT HiBiT K562 cell line; conditions: 24 hours, top dose 10 μM
Method in brief: (§2)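 Endogenous targets in K562 knock-in lines carried a HiBiT tag and were treated for 24 h at 37 °C with 10-point 3-fold dilutions (top 10 μM final, DMSO ≤0.25%). Abundance was read as lytic Nano-Glo HiBiT luminescence. IC50 came from a four-parameter logistic fit of normalized response.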

MYB = test: HiBiT protein abundance assay, MYB HiBiT K562 cell line; conditions: 24 hours, top dose 10 μM
Method in brief: as §2

Target C = test: RT-qPCR splicing assay panel, Target C canonical junction (CJ) mRNA; conditions: Homo sapiens
Method in brief: as §1

[1] = Table 5 panel, canonical junction qPCR, compound concentration having 50% response in CJ decrease, read-out: SMN2 IC50 (decrease in CJ mRNA levels)
[2] = HiBiT K562 cell line, read-out: Effect on protein abundance, HTT (IC50 category)
[3] = HiBiT K562 cell line, read-out: Effect on protein abundance, MYB (IC50 category)
[4] = Table 5 panel, canonical junction qPCR, compound concentration having 50% response in CJ decrease, read-out: Target C IC50 (decrease in CJ mRNA levels)
[5] = canonical junction qPCR panel, Table 5, read-out: SMN2 (decrease in CJ mRNA levels, IC50)
[6] = canonical junction qPCR panel, Table 5, read-out: Target C (decrease in CJ mRNA levels, IC50)
[7] = HiBiT lytic detection, modified K562 cells, read-out: Effect on protein abundance, HTT (IC50)
[8] = HiBiT lytic detection, modified K562 cells, read-out: Effect on protein abundance, MYB (IC50)

SMILES | IC50 (SMN2 mRNA; [1]) [nM] | IC50 (HTT; [2]) [nM] | IC50 (MYB; [3]) [nM] | IC50 (Target C; [4]) [nM] | IC50 (SMN2 mRNA; [5]) [nM] | IC50 (Target C; [6]) [nM] | IC50 (HTT; [7]) [nM] | IC50 (MYB; [8]) [nM]
Cc1c(O)c(-c2ncc3c(=O)n(C4CCNC4)ccc3n2)cc2cn(C)nc12 (centres unmarked) [Compound 1222] | < 100 | > 10000 | < 100 | > 10000 | – | – | – | –
Cc1cn2cc(-c3ncc4c(=O)n(C5CCNCC5)ccc4n3)c(O)c(C)c2n1 [Compound 1225] | < 100 | 100 to 1000 | 100 to 1000 | 100 to 1000 | – | – | – | –
Cc1cn2cc(-c3ncc4c(=O)n([C@@H]5CCNC5)ccc4n3)cc(F)c2n1 [Compound 1228] | < 100 | > 10000 | 100 to 1000 | > 10000 | – | – | – | –
Cc1cn2cc(-c3ccc4c(=O)n(C5CCNCC5)ccc4n3)nc(C)c2n1 [Compound 1238, 2-(2,8-dimethylimidazo[1,2-a]pyrazin-6-yl)-6-(piperidin-4-yl)-1,6-naphthyridin-5(6H)-one] | – | > 10000 | > 10000 | – | 1000 to 10000 | > 10000 | – | –
Cc1cn2cc(-c3ccc4c(=O)n(C5CCNCC5)ccc4n3)cc(C)c2n1 [Compound 1241, 2-(2,8-dimethylimidazo[1,2-a]pyridin-6-yl)-6-(piperidin-4-yl)-1,6-naphthyridin-5(6H)-one] | – | < 100 | < 100 | – | < 100 | 1000 to 10000 | – | –
Cn1cc2cc(-c3ccc4c(=O)n([C@@H]5CCNC6(CC6)C5)ccc4n3)c(O)cc2n1 [Compound 1246] | – | 100 to 1000 | 100 to 1000 | – | < 100 | 1000 to 10000 | – | –
Cc1cn2nc(-c3ccc4c(=O)n(C5CCNCC5)ncc4n3)cc(C)c2n1 [Compound 1247] | – | – | – | – | < 100 | 100 to 1000 | < 100 | < 100
Cc1c(O)c(-c2ccc3c(=O)n(C4CCNCC4)cc(C)c3n2)cc2cn(C)nc12 [Compound 1284] | – | < 100 | < 100 | – | < 100 | 100 to 1000 | – | –
Cc1cn(C2CCNCC2)c(=O)c2ccc(-c3cc4cn(C)nc4c(F)c3O)nc12 [Compound 1285] | – | < 100 | < 100 | – | < 100 | < 100 | – | –
Cc1cn2cc(-c3ccc4c(=O)n(C5CCNCC5)ccc4n3)cc(C#N)c2n1 [Compound 1297] | – | 100 to 1000 | 100 to 1000 | – | < 100 | 100 to 1000 | – | –
Cc1c(O)c(-c2ncc3c(=O)n(N4CCNCC4)ccc3n2)cc2cn(C)nc12 [Compound 1303] | – | 100 to 1000 | 100 to 1000 | – | < 100 | 100 to 1000 | – | –
Cc1c(O)c(-c2ncc3c(=O)n(C4CNC4)ccc3n2)cc2cn(C)nc12 [Compound 1305, 6-(azetidin-3-yl)-2-(6-hydroxy-2,7-dimethyl-indazol-5-yl)pyrido[4,3-d]pyrimidin-5-one] | – | > 10000 | 100 to 1000 | – | < 100 | > 10000 | – | –
Cn1cc2cc(-c3ccc4c(=O)n(C5CCNC6(CC6)C5)ncc4n3)c(O)cc2n1 (centres unmarked) [Compound 1306] | – | – | – | – | < 100 | 100 to 1000 | 100 to 1000 | 100 to 1000
CN1CCC(n2ncc3nc(-c4cc5cn(C)nc5cc4O)ccc3c2=O)CC1 [Compound 1307] | – | – | – | – | 100 to 1000 | 1000 to 10000 | 1000 to 10000 | 1000 to 10000
CCN1CCC(n2ncc3nc(-c4cc5cn(C)nc5cc4O)ccc3c2=O)CC1 [Compound 1310] | – | – | – | – | 100 to 1000 | 1000 to 10000 | 1000 to 10000 | 1000 to 10000
Cc1cn2nc(-c3ccc4c(=O)n(C5CCN(C)CC5)ncc4n3)cc(C)c2n1 [Compound 1311] | – | – | – | – | < 100 | 100 to 1000 | 100 to 1000 | 100 to 1000

Results, then the compound that gave them:

IC50 (SMN2 mRNA; [1]) [nM] | IC50 (HTT; [2]) [nM] | IC50 (MYB; [3]) [nM] | IC50 (Target C; [4]) [nM] | IC50 (SMN2 mRNA; [5]) [nM] | IC50 (Target C; [6]) [nM] | IC50 (HTT; [7]) [nM] | IC50 (MYB; [8]) [nM] | SMILES
100 to 1000 | 100 to 1000 | 100 to 1000 | 100 to 1000 | – | – | – | – | Cc1cn2cc(-c3ncc4c(=O)n(C5CCNC5)ccc4n3)cc(C#N)c2n1 (centres unmarked) [Compound 1221]
< 100 | 1000 to 10000 | 100 to 1000 | 1000 to 10000 | – | – | – | – | Cn1cc2cc(-c3ncc4c(=O)n(C5CCNC5)ccc4n3)c(O)c(F)c2n1 (centres unmarked) [Compound 1223]
100 to 1000 | > 10000 | 1000 to 10000 | > 10000 | – | – | – | – | Cc1cn2cc(-c3ncc4c(=O)n(C5CCNC5)ccc4n3)c(O)c(C)c2n1 (centres unmarked) [Compound 1227]
– | 100 to 1000 | 100 to 1000 | – | < 100 | 100 to 1000 | – | – | Cn1cc2cc(-c3ccc4c(=O)n(C5CCNCC5)ccc4n3)cc(F)c2n1 [Compound 1231]
– | > 10000 | > 10000 | – | 100 to 1000 | > 10000 | – | – | Cc1cn2cc(-c3ccc4c(=O)n(C5CCNCC5)ccc4n3)c(O)cc2n1 [Compound 1240]
– | < 100 | < 100 | – | < 100 | 100 to 1000 | – | – | Cn1cc2cc(-c3ccc4c(=O)n(C5CCNC6(CC6)C5)ccc4n3)c(O)cc2n1 (centres unmarked) [Compound 1242]
– | > 10000 | > 10000 | – | > 10000 | > 10000 | – | – | COc1c(-c2ccc3c(=O)n(C4CCNCC4)ccc3n2)cc2cn(C)nc2c1C [Compound 1243]
– | < 100 | < 100 | – | < 100 | 100 to 1000 | – | – | Cn1cc2nc(-c3ccc4c(=O)n(C5CCNCC5)ccc4n3)c(O)cc2n1 [Compound 1296]
– | > 10000 | 1000 to 10000 | – | 100 to 1000 | > 10000 | – | – | Cc1cn2cc(-c3ccc4c(=O)n(C5CCNC5)ccc4n3)cc(F)c2n1 (centres unmarked) [Compound 1299]
– | 100 to 1000 | 100 to 1000 | – | < 100 | 1000 to 10000 | – | – | Cc1c(O)c(-c2ncc3c(=O)n(C4CCC(N)CC4)ccc3n2)cc2cn(C)nc12 (centres unmarked) [Compound 1300, 6-((1s,4s)-4-aminocyclohexyl)-2-(6-hydroxy-2,7-dimethyl-2H-indazol-5-yl)pyrido[4,3-d]pyrimidin-5(6H)-one]
– | 100 to 1000 | 100 to 1000 | – | < 100 | 1000 to 10000 | – | – | Cc1cn2cc(-c3ncc4c(=O)n(C5CCNCC5)ccc4n3)cc(C#N)c2n1 [Compound 1301]
– | > 10000 | > 10000 | – | 1000 to 10000 | > 10000 | – | – | Cc1cn2cc(-c3ccc4c(=O)n(C5CCNC5)ccc4n3)c(O)c(C)c2n1 (centres unmarked) [Compound 1302]
– | 100 to 1000 | 100 to 1000 | – | < 100 | 1000 to 10000 | – | – | Cc1c(O)c(-c2ncc3c(=O)n(C4CCN(C)CC4)ccc3n2)cc2cn(C)nc12 [Compound 1304]
– | – | – | – | < 100 | 100 to 1000 | < 100 | 100 to 1000 | CCN1CCC(n2ncc3nc(-c4cc(C)c5nc(C)cn5n4)ccc3c2=O)CC1 [Compound 1308]
– | – | – | – | < 100 | 100 to 1000 | 100 to 1000 | 100 to 1000 | Cc1cn2nc(-c3ccc4c(=O)n(C5CCN(CCF)CC5)ncc4n3)cc(C)c2n1 [Compound 1309]
– | 1000 to 10000 | < 100 | – | < 100 | 1000 to 10000 | – | – | Cc1c(O)c(-c2ncc3c(=O)n(C45CCC(N)(CC4)C5)ccc3n2)cc2cn(C)nc12 [Compound 1428]
